We go through eleven molecules from PMC6479639, “Structure-Based Virtual Screening and In Vitro Evaluation of New Trypanosoma cruzi Cruzain Inhibitors” (International Journal of Molecular Sciences, 2019).

Data set [1] deals with T. cruzi INC-5 bloodstream trypomastigotes. The experiment in a line: microbe, parasite or virus in culture. As to conditions: Trypanosoma cruzi, 24 h, read-out: LC50 Bloodstream Trypomastigotes T. cruzi INC-5. An excerpt: (§1) For biological evaluation, the compounds Z2 (ZINC9873043), Z3 (ZINC9870651), Z5 (ZINC9715287), and Z6 (ZINC9861447) were selected and purchased from Molport https://www.molport.com (accessed on: 03 March 2018). For evaluation of trypanocidal activity of the selected compounds, two strains (NINOA and INC-5) in the epimastigote or trypomastigote stage of T. cruzi were used. Each strain was used to infect CD-1 mice (18–20 g) intraperitoneally with a concentration of 1 × 10^6 trypomastigotes/mL of blood. In the maximum peak of parasitemia, blood was obtained by cardiac puncture using heparin as an anticoagulant. The parasite concentration was then adjusted with isotonic saline (0.85% NaCl), and 90 μL of blood was used to achieve a concentration of 1 × 10^6 trypomastigotes/mL of blood. A 10 μL sample of each compound was evaluated in 96-well plates. The treatments performed consisted of a negative control, which contained dimethylsulfoxide (DMSO 2.5%) and the four compounds selected from virtual screening. […] Once the selected compounds were added after being homogenized with blood, the plates were incubated at 4 °C for 24 h. Once the incubation time had elapsed, the plates were kept at room temperature for 30 min, and then an aliquot of 5 μL was taken from each well, a fresh preparation was made, and the viable trypomastigotes were counted using the Pizzi method. A calculation of the number of viable trypomastigotes per mL of blood was carried out, and the survival percentages were obtained taking 100% of the negative control. Each test was done in triplicate. […] The LC50 values were determined using Probit statistical analysis of the dose-response, and the results were expressed as the mean of the standard deviation. The results were later converted to micromolar units.

Data set [2] concerns T. cruzi INC-5 epimastigotes. Kind of data set: microbe, parasite or virus in culture. To be noted: for CC50: Trypanosoma cruzi, read-out: LC50 Epimastigotes T. cruzi INC-5.
From the text: as §1

Data set [3] relates to epimastigote. Set-up: method as in PMID 20961766. To be noted: read-out: IC50 replication of the epimastigote; cited from earlier work.
The target in data set [4] is cysteine proteases from epimastigotes of Trypanosoma cruzi strain INC-5. The experiment in a line: Enzyme inhibition, protease extract, substrate Z-Phe-Arg-MCA. In kind it is biochemical. To be noted: protein extract of INC-5 epimastigotes, Z-Phe-Arg-MCA 5 µM, compounds 6.25–200 µM, pH 6.5. On the procedure: T. cruzi epimastigotes of the INC-5 strain were used to obtain a protein extract quantified by the Bradford method. Evaluation of the activity was carried out using the synthetic fluorogenic peptide Z-Phe-Arg-MCA as a substrate at 5 µM, with 1 μg of the enzyme extract and the corresponding compounds (Z2, Z3, Z5, and Z6) at different concentrations (6.25–200 µM) using a reaction buffer (50 mM Na2HPO4, 100 mM NaCl, 5 mM EDTA, 2.5 mM dithiothreitol; pH 6.5) at room temperature. As a negative control of enzyme inhibition, the substrate without compounds was evaluated with 2% DMSO (concentration corresponding to the highest dilution of the compounds). Hydrolysis of the substrate was monitored in a continuous assay for 1 h in the Spectramax M5 spectrofluorometer (Molecular Devices) at 380 nm excitation and 440 nm emission. The mean of fluorescence changes was normalized taking the control (without inhibitor) as 100%. The IC50 values were determined from semilog concentration-response plots using the nonlinear curve-fitting method.

Data set [5] deals with trypomastigotes of T. cruzi of the Tulahúen strain in mouse fibroblasts (L929). Set-up: method as in Ferreira et al. (2010) and Pinto et al. (2017). As to conditions: infected L929 fibroblasts, ref Ferreira et al. (2010) and Pinto et al. (2017); cited from earlier work.
The test system of data set [6] is T. cruzi NINOA bloodstream trypomastigotes. Kind of data set: microbe, parasite or virus in culture. To be noted: Trypanosoma cruzi, 24 h, read-out: LC50 Bloodstream Trypomastigotes T. cruzi NINOA.
From the text: as §1

The conditions of data set [7]: activity previously reported for the compound; cited from earlier work.

The structures appear in SMILES notation.

Consider `O=C(Cn1ccnc1[N+](=O)[O-])NCc1ccccc1` [Bzn, benznidazole, reference compound], for which the CC50 in data set [1] was 225 ± 26.5 µM; in data set [2] it was 9.64 ± 4.2 µM. The IC50 in data set [3] was 1.8 µM.
As for `Clc1ccc2[nH]c3c(NCCCN4CCOCC4)ncnc3c2c1` [S1, 8-chloro-N-(3-morpholinopropyl)-5H-pyrimido[5,4-b]-indol-4-amine, reference compound], the CC50 in data set [1] and in data set [2] was greater than 250 µM each time. The “LC50 Epimastigotes T. cruzi INC-5” value in data set [2] (half maximal lytic concentration, epimastigotes, INC-5 strain) is “did not show an effect”. Also, the IC50 in data set [4] was greater than 200 µM; in data set [5] it was 2.5 µM.
Consider `Cc1ccc(NC(=O)CCC(=O)N2CCC(c3ccccc3)=N2)cc1S(=O)(=O)N1CCCCC1` [Z2], for which the results for the CC50 in data set [1], in data set [2] and in data set [6] were greater than 250 µM, 239 ± 9.3 µM and greater than 250 µM, respectively. In data set [4], this molecule displayed an IC50 greater than 200 µM. In data set [7], the “Activity Reported” value is reported as “Inhibitor of cannabinoid receptor type 2”.
As to `C[C@H]1CCc2sc(-c3nnc(SCC(=O)N4N=C(c5ccco5)C[C@@H]4c4ccco4)o3)cc2C1` [Z3], the CC50 in data set [1], in data set [2] and in data set [6] was greater than 250 µM each time. The same molecule had an IC50 in data set [4] of 84.4 µM.
With `COc1ccc([C@H]2CC(c3ccc4ccccc4c3)=NN2C(=O)Cn2cnc3ccsc3c2=O)cc1` [Z4], the “Activity Reported” value in data set [7] is “Amine oxidase inhibitor”.
Take `Cc1nnc(SCC(=O)N2N=C(c3ccc4ccccc4c3)C[C@@H]2c2ccccc2)n(N)c1=O` [Z5]: the CC50 stood at 185 ± 8.5 µM in data set [1], 36.3 ± 9.9 µM in data set [2] and 166 ± 14.5 µM in data set [6]. In addition, the midpoint of inhibition in data set [4], the IC50, lay at 56.2 µM. Further, the “Activity Reported” value in data set [7] is given as “Amine oxidase inhibitor”.
Regarding `Cc1ccc(C2=NN(C(=O)CN3C(=O)N[C@](C)(c4ccc(F)c(F)c4)C3=O)[C@H](c3ccco3)C2)cc1` [Z6], the CC50 in data set [1], in data set [2] and in data set [6] was greater than 250 µM throughout. This molecule returned an IC50 in data set [4] of 50.4 µM. The “Activity Reported” value in data set [7] is reported as “Amine oxidase inhibitor”.
Consider `O=C(CCC(=O)N1CCC(c2ccccc2)=N1)N1CCN(S(=O)(=O)c2ccc3c(c2)CCC3)CC1` [Z7], for which the “Activity Reported” value in data set [7] was “Inhibitor of aldo keto reductases”.
`CN1N=C(C(=O)N2CCc3c(c(C(=O)N4CCOCC4)nn3CCCc3ccccc3)C2)CCC1=O` [Z8]: the “Activity Reported” value in data set [7] is recorded as “Inhibitor of cathepsin S”.
Regarding `C[C@@H](Sc1nnc(C2CCCCC2)o1)C(=O)N1N=C(c2ccc(Cl)cc2)C[C@@H]1c1ccco1` [Z10], the “Activity Reported” value in data set [7] is reported as “Amine oxidase inhibitor”.
For `C[C@H](/C=C/C(=O)C=O)NC(=O)[C@@H](Cc1ccccc1)NC(=O)OCc1ccccc1` [compound 186, reference compound], in data set [7], the “Activity Reported” value is “Cz inhibitor”.
